Reference: patent US5356887A, “Pharmaceutical compositions containing insoluble calcium salts of amino-hydroxybutylidene bisphoshonic acids” (Merck & Co., Inc., priority 1993, dated 1994)
Where a name gives a salt, the structure may show the parent alone. Read-outs that look alike come from different tables or passages of the source.

Assays:
[1] = tested on: immobilized femur; conditions: days -2 and -1, 10 days after surgery, n = 5
Description: Immobilization was produced by unilateral hind limb sciatic neurectomy. Ten days after surgery the rats were sacrificed, hind limbs removed, and the femora ashed at 700° C. for 24 hours. Ash weight was determined and the difference between the ash weight of the intact limb and immobilized limb calculated and expressed as the mg difference. Per cent difference was calculated as the % difference in ash weight between the intact and immobilized limb.
(§1) mg Diff = difference in ash weight between the intact femur and the
(§2) se = standard error of the mean
(§3) % Bone Loss = ash weight difference between the intact femur and the
(§4) immobilized femur divided by the ash weight of the intact femur

[2] = in vivo
[3] = tested on: immobilized femur; conditions: days -4 and -3, 10 days after surgery, n = 5
Description: On day 0 all rats underwent surgery whereby the sciatic nerve of the right hind limb was severed. Ten days following immobilization surgery, the rats were sacrificed and hind limbs removed. The femora were defleshed, maximum femoral length of both femora measured and then placed in a muffle furnace at 700° C. for 24 hours.
as §1, §2, §3, §4

[4] = tested on: rat paw; assay: Local Irritation Study/Rat Paw Licking Response Test; conditions: suspension vs solution of the (ABP)Na salt
[5] = 0.0001 mg P/kg s.c., monocalcium salt
[6] = 0.001 mg P/kg s.c., monocalcium salt
[7] = 0.01 mg P/kg s.c., monocalcium salt
[8] = 0.1 mg P/kg s.c., monocalcium salt
[9] = 2 × 0.1 mg P/kg s.c., monocalcium salt
[10] = 2 × 1.0 mg P/kg s.c., monocalcium salt
[11] = 2 × 0.1 mg P/kg s.c., monosodium salt
[12] = 0.0001 mg P/kg s.c., monosodium salt
[13] = 0.001 mg P/kg s.c., monosodium salt
[14] = 0.01 mg P/kg s.c., monosodium salt
[15] = 0.1 mg P/kg s.c., monosodium salt

## NCCCC(O)(P(=O)(O)O)P(=O)(O)O [(ABP)Ca, [(4-amino-1-hydroxybutylidene)-1,1-bisphosphonic acid] monocalcium salt]
[1]; [5]
  % Bone Loss: 9.34%
  mg Diff (difference in ash weight between the intact femur and the immobilized femur): 28.70 mg
[1]; [6]
  % Bone Loss: 7.69%
  mg Diff (difference in ash weight between the intact femur and the immobilized femur): 25.98 mg
[1]; [7]
  % Bone Loss: 5.01%
  mg Diff (difference in ash weight between the intact femur and the immobilized femur): 16.72 mg
[1]; [8]
  % Bone Loss: 4.12%
  mg Diff (difference in ash weight between the intact femur and the immobilized femur): 13.24 mg
[2]
  Systemic release of ABP: slow systemic release
[2]; sc
  Level of the drug in the bloodstream: never very high

## NCCCC(O)(P(=O)(O)O)P(=O)(O)O [(ABP)3 Ca4, tri[(4-amino-1-hydroxybutylidene)-1,1-bisphosphonic acid] tetracalcium salt]
[3]; 2 × 0.1 mg P/kg s.c.
  % Bone Loss: 2.48%
  mg Diff (difference in ash weight between the intact femur and the immobilized femur): 7.68 mg
[3]; 2 × 1.0 mg P/kg s.c.
  % Bone Loss: 1.22%
  mg Diff (difference in ash weight between the intact femur and the immobilized femur): 3.94 mg
[4]
  Paw licking responses and tolerability, in words: induced a lower number of responses and were better tolerated than the solution of the (ABP)Na salt

## NCCCC(O)(P(=O)(O)O)P(=O)(O)O [(ABP)2 Ca, di[(4-amino-1-hydroxybutylidene)-1,1-bisphosphonic acid] monocalcium salt]
[3]; [9]
  % Bone Loss: 1.93%
  mg Diff (difference in ash weight between the intact femur and the immobilized femur): 6.50 mg
[3]; [10]
  % Bone Loss: 2.09%
  mg Diff (difference in ash weight between the intact femur and the immobilized femur): 7.38 mg
[1]; [5]
  % Bone Loss: 8.93%
  mg Diff (difference in ash weight between the intact femur and the immobilized femur): 29.64 mg
[1]; [6]
  % Bone Loss: 6.58%
  mg Diff (difference in ash weight between the intact femur and the immobilized femur): 22.00 mg
[1]; [7]
  % Bone Loss: 3.64%
  mg Diff (difference in ash weight between the intact femur and the immobilized femur): 12.62 mg
[1]; [8]
  % Bone Loss: 4.14%
  mg Diff (difference in ash weight between the intact femur and the immobilized femur): 11.32 mg
[4]
  Paw licking responses and tolerability, in words: induced a lower number of responses and were better tolerated than the solution of the (ABP)Na salt

## NCCCC(O)(P(=O)(O)O)P(=O)(O)O [(ABP)Na, (4-amino-1-hydroxybutylidene)-1,1-bisphosphonic acid monosodium salt, reference compound]
[3]; [11]
  % Bone Loss: 4.68%
  mg Diff (difference in ash weight between the intact femur and the immobilized femur): 14.62 mg
[1]; [12]
  % Bone Loss: 9.93%
  mg Diff (difference in ash weight between the intact femur and the immobilized femur): 31.14 mg
[1]; [13]
  % Bone Loss: 5.95%
  mg Diff (difference in ash weight between the intact femur and the immobilized femur): 21.32 mg
[1]; [14]
  % Bone Loss: 4.90%
  mg Diff (difference in ash weight between the intact femur and the immobilized femur): 18.72 mg
[1]; [15]
  % Bone Loss: 4.15%
  mg Diff (difference in ash weight between the intact femur and the immobilized femur): 14.10 mg
[2]; iv
  Level of the drug in the bloodstream: high level
